Assay results as given in patent US20130274338A1, “PHARMACEUTICAL COMPOSITIONS COMPRISING DGLA, 15-OHEPA, AND/OR 15-HETRE AND METHODS OF REDUCING SEBUM PRODUCTION USING SAME” (priority 2012, published 2013).

System: P. acnes
Assay: Agar dilution method, growth of P. acnes and MIC, combinations with a fatty acid spike
Type: cell-based, Propionibacterium acnes
Design: key to Growth Index Plate 1 / Growth Index Plate 2 / Growth Index Plate 3 / Growth Index Avg: +++: confluent growth (comparable to control); ++: less confluent growth; +: marked reduction in growth to multiple tiny, single colonies; −: no growth present
Protocol: Several compounds including fatty acids such as DGLA, 15-OHEPA, and 15-HETrE were tested to determine their capacity to inhibit the growth of P. acnes. In an exemplary method, an agar dilution method was used to determine the minimum inhibitory concentration (MIC) of each tested compound. Briefly, the agar dilution method involved preparing a series of concentrations of each compound (e.g., nicotinamide, benzoyl peroxide, adapalene, metronidazole, DGLA, 15-OHEPA, and 15-HETrE) in a Reinforced Clostridial Agar (RCA) media that facilitates growth of P. acnes under anaerobic conditions. An inoculum of P. acnes was prepared by incubation of P. acnes for approximately seven days at 35-37° C. to achieve a ≧1.0 OD600 inoculum of P. acnes in RCM broth. A portion of this inoculum was then added to the surface of each plate as a 10 μL spot and incubated at 35-37° C. for 72 hours or more. Growth of P. acnes was then observed and compared to control plates in which no compound has been added, and positive inhibition plates prepared with erythromycin. […] The growth of P. acnes in the presence of nicotinamide, benzoyl peroxide, adapalene, metronidazole, DGLA, 15-OHEPA, and 15-HETrE was determined with varying concentrations of the compound (see, Table 2). Next, the MIC was determined as the concentration at which a marked reduction (+) occurs in the appearance of growth on the test plate (as per Clinical and Laboratory Standards Institute M11-A7).
The compounds tested singly in Example 1 were tested in combination with one another to determine the capacity of the combination to inhibit the growth of P. acnes. In an exemplary method, the MIC was determined for each of the combination as described in Example 1. Briefly, test combinations included DGLA with nicotinamide, benzoyl peroxide, adapalene, or metronidazole; 15-HETrE with nicotinamide, benzoyl peroxide, adapalene, or metronidazole; and 15-OHEPA with nicotinamide, benzoyl peroxide, adapalene, or metronidazole. The tables below show the growth of P. acnes in the presence of 0.4 or 1.0 mg/mL DGLA with varying concentrations of nicotinamide, benzoyl peroxide, adapalene, or metronidazole (Table 3); the growth of P. acnes in the presence of 0.01 or 0.05 mg/mL 15-HETrE with varying concentrations of nicotinamide, benzoyl peroxide, adapalene, or metronidazole (Table 5); and the growth of P. acnes in the presence of 0.5 or 0.1 mg/mL 15-OHEPA with varying concentrations of nicotinamide, benzoyl peroxide, adapalene, or metronidazole (Table 7).

[1] = compound at 0.2 mg/mL + 0.01 mg/mL 15-HETrE
[2] = compound at 0.2 mg/mL + 0.05 mg/mL 15-HETrE
[3] = compound at 0.2 mg/mL + 0.05 mg/mL 15-OHEPA
[4] = compound at 0.2 mg/mL + 0.1 mg/mL 15-OHEPA
[5] = compound at 0.2 mg/mL + 0.4 mg/mL dGLA
[6] = compound at 0.2 mg/mL + 1.0 mg/mL dGLA
[7] = compound at 0.4 mg/mL + 0.01 mg/mL 15-HETrE
[8] = compound at 0.4 mg/mL + 0.05 mg/mL 15-HETrE
[9] = compound at 0.4 mg/mL + 0.05 mg/mL 15-OHEPA
[10] = compound at 0.4 mg/mL + 0.1 mg/mL 15-OHEPA
[11] = compound at 0.4 mg/mL + 0.4 mg/mL dGLA
[12] = compound at 0.4 mg/mL + 1.0 mg/mL dGLA
[13] = compound at 0.6 mg/mL + 0.01 mg/mL 15-HETrE
[14] = compound at 0.6 mg/mL + 0.05 mg/mL 15-HETrE
[15] = compound at 0.6 mg/mL + 0.05 mg/mL 15-OHEPA
[16] = compound at 0.6 mg/mL + 0.1 mg/mL 15-OHEPA
[17] = compound at 0.6 mg/mL + 0.4 mg/mL dGLA
[18] = compound at 0.6 mg/mL + 1.0 mg/mL dGLA
[19] = compound at 0.8 mg/mL + 0.01 mg/mL 15-HETrE
[20] = compound at 0.8 mg/mL + 0.05 mg/mL 15-HETrE
[21] = compound at 0.8 mg/mL + 0.05 mg/mL 15-OHEPA
[22] = compound at 0.8 mg/mL + 0.1 mg/mL 15-OHEPA
[23] = compound at 0.8 mg/mL + 0.4 mg/mL dGLA
[24] = compound at 0.8 mg/mL + 1.0 mg/mL dGLA
[25] = compound at 1.0 mg/mL + 0.01 mg/mL 15-HETrE
[26] = compound at 1.0 mg/mL + 0.05 mg/mL 15-HETrE
[27] = compound at 1.0 mg/mL + 0.05 mg/mL 15-OHEPA
[28] = compound at 1.0 mg/mL + 0.1 mg/mL 15-OHEPA
[29] = compound at 1.0 mg/mL + 0.4 mg/mL dGLA
[30] = compound at 1.0 mg/mL + 1.0 mg/mL dGLA

Compound: Cc1ncc([N+](=O)[O-])n1CCO [Metronidazole]
- Growth Index Avg [1]: +++
- Growth Index Plate 1 [1]: +++
- Growth Index Plate 2 [1]: +++
- Growth Index Plate 3 [1]: +++
- Growth Index Avg [2]: −
- Growth Index Plate 1 [2]: −
- Growth Index Plate 2 [2]: −
- Growth Index Plate 3 [2]: −
- Growth Index Avg [3]: +++
- Growth Index Plate 1 [3]: +++
- Growth Index Plate 2 [3]: +++
- Growth Index Plate 3 [3]: +++
- Growth Index Avg [4]: −
- Growth Index Plate 1 [4]: −
- Growth Index Plate 2 [4]: −
- Growth Index Plate 3 [4]: −
- Growth Index Avg [5]: +++
- Growth Index Plate 1 [5]: +++
- Growth Index Plate 2 [5]: +++
- Growth Index Plate 3 [5]: +++
- Growth Index Avg [6]: +++
- Growth Index Plate 1 [6]: +++
- Growth Index Plate 2 [6]: +++
- Growth Index Plate 3 [6]: +++
- Growth Index Avg [7]: +++
- Growth Index Plate 1 [7]: +++
- Growth Index Plate 2 [7]: +++
- Growth Index Plate 3 [7]: +++
- Growth Index Avg [8]: −
- Growth Index Plate 1 [8]: −
- Growth Index Plate 2 [8]: −
- Growth Index Plate 3 [8]: −
- Growth Index Avg [9]: +++
- Growth Index Plate 1 [9]: +++
- Growth Index Plate 2 [9]: +++
- Growth Index Plate 3 [9]: +++
- Growth Index Avg [10]: −
- Growth Index Plate 1 [10]: −
- Growth Index Plate 2 [10]: −
- Growth Index Plate 3 [10]: −
- Growth Index Avg [11]: +++
- Growth Index Plate 1 [11]: +++
- Growth Index Plate 2 [11]: +++
- Growth Index Plate 3 [11]: +++
- Growth Index Avg [12]: +++
- Growth Index Plate 1 [12]: +++
- Growth Index Plate 2 [12]: +++
- Growth Index Plate 3 [12]: +++
- Growth Index Avg [13]: +++
- Growth Index Plate 1 [13]: +++
- Growth Index Plate 2 [13]: +++
- Growth Index Plate 3 [13]: +++
- Growth Index Avg [14]: −
- Growth Index Plate 1 [14]: −
- Growth Index Plate 2 [14]: −
- Growth Index Plate 3 [14]: −
- Growth Index Avg [15]: +++
- Growth Index Plate 1 [15]: +++
- Growth Index Plate 2 [15]: +++
- Growth Index Plate 3 [15]: +++
- Growth Index Avg [16]: −
- Growth Index Plate 1 [16]: −
- Growth Index Plate 2 [16]: −
- Growth Index Plate 3 [16]: −
- Growth Index Avg [17]: +++
- Growth Index Plate 1 [17]: +++
- Growth Index Plate 2 [17]: +++
- Growth Index Plate 3 [17]: +++
- Growth Index Avg [18]: +++
- Growth Index Plate 1 [18]: +++
- Growth Index Plate 2 [18]: +++
- Growth Index Plate 3 [18]: +++
- Growth Index Avg [19]: +++
- Growth Index Plate 1 [19]: +++
- Growth Index Plate 2 [19]: +++
- Growth Index Plate 3 [19]: +++
- Growth Index Avg [20]: −
- Growth Index Plate 1 [20]: −
- Growth Index Plate 2 [20]: −
- Growth Index Plate 3 [20]: −
- Growth Index Avg [21]: +++
- Growth Index Plate 1 [21]: +++
- Growth Index Plate 2 [21]: +++
- Growth Index Plate 3 [21]: ++
- Growth Index Avg [22]: −
- Growth Index Plate 1 [22]: −
- Growth Index Plate 2 [22]: −
- Growth Index Plate 3 [22]: −
- Growth Index Avg [23]: ++
- Growth Index Plate 1 [23]: +++
- Growth Index Plate 2 [23]: ++
- Growth Index Plate 3 [23]: ++
- Growth Index Avg [24]: +++
- Growth Index Plate 1 [24]: +++
- Growth Index Plate 2 [24]: +++
- Growth Index Plate 3 [24]: ++
- Growth Index Avg [25]: +++
- Growth Index Plate 1 [25]: +++
- Growth Index Plate 2 [25]: +++
- Growth Index Plate 3 [25]: +++
- Growth Index Avg [26]: −
- Growth Index Plate 1 [26]: −
- Growth Index Plate 2 [26]: −
- Growth Index Plate 3 [26]: −
- Growth Index Avg [27]: +++
- Growth Index Plate 1 [27]: +++
- Growth Index Plate 2 [27]: ++
- Growth Index Plate 3 [27]: +++
- Growth Index Avg [28]: −
- Growth Index Plate 1 [28]: −
- Growth Index Plate 2 [28]: −
- Growth Index Plate 3 [28]: −
- Growth Index Avg [29]: ++
- Growth Index Plate 1 [29]: ++
- Growth Index Plate 2 [29]: ++
- Growth Index Plate 3 [29]: ++
- Growth Index Avg [30]: ++
- Growth Index Plate 1 [30]: ++
- Growth Index Plate 2 [30]: ++
- Growth Index Plate 3 [30]: ++
- growth of P. Acnes in combination with 15-HETrE, compared with 15-HETrE used alone (in combination with 15-HETrE): did not reduce the growth
- growth of P. Acnes in combination with 15-OHEPA, compared with 15 OHEPA used alone (in combination with 15-OHEPA): did not reduce the growth
- growth of P. Acnes in combination with DGLA, compared with DGLA used alone (in combination with DGLA): did not reduce the growth
